Laboratory results: a melting point compilation (Tetko et al.; mined from patent text by program, amines drawn as free bases though some values may be those of a salt)
Residues, ends and D or L forms follow the SMILES beside them. *: point of attachment. Boc = CC(C)(C)OC(=O)*

Row | melting point [°C] | SMILES
1 | 143 to 144 | COc1cc(COc2nc(-c3ccccc3)ncc2C=O)ccc1OCc1nc(-c2ccco2)oc1C
2 | 140 | COc1cc(C(=O)N2CCN(C(=O)c3cc(OC)c(OC)c(OC)c3)C(CNC(=O)OC(C)C)C2)cc(OC)c1OC (configuration not stated)
3 | 85 to 85.5 | N#CCOc1ccccc1OCC#N
4 | 101 to 102 | OCc1cccc2nc(-c3ccccc3)sc12
5 | 74 to 75 | COC(=O)c1nc(C2CC2)nc(SC)c1Cl
6 | > 300 | CCCNS(=O)(=O)c1cc2cc(P(=O)(O)O)c(=O)[nH]c2cc1Cl
7 | 251 to 255 | O=S(=O)(O)c1ccc(OC2=C(Oc3ccc(S(=O)(=O)O)cc3)C(F)(F)C(F)(F)C2(F)F)cc1
8 | 117 to 118 | CC(C)(C)c1cnnc(NN)n1
9 | 209 to 210 | CC(=O)c1ccc(-c2cn3ccccc3n2)cc1
10 | 169 to 171 | CC(C)(C)OC(=O)N1CCc2cc(OCc3ccccc3)c(OCc3ccccc3)cc2C1Cc1ccc(N)c(I)c1 (configuration not stated)
11 | 153 to 155 | CN1C(=O)C(C(=O)Nc2ccc(F)cc2)S(=O)(=O)c2cc(F)ccc21 (configuration not stated)
12 | 115 to 117 | Cc1ccc(NCc2ccc[nH]2)cc1O
13 | 152 | CN1CCC(=C2c3sccc3C=Cn3ccnc32)CC1
14 | 112 to 114 | CCc1cn(C[C@@H](C)O)c2cc(Cl)c(F)cc12
15 | 123 to 125 | O=C(O)CCc1ccc(OCc2ccc(Oc3ccccc3)cc2)c(F)c1
16 | 250 to 255 | CC(=O)Nc1ccc2nc3n(c2c1)CCC3
17 | 225 to 227 | N#Cc1cccc(-c2cc(-c3cc(C#N)ccc3[N+](=O)[O-])no2)c1
18 | 159 | COc1ccccc1NC(=O)[C@@H]1Cc2[nH]cnc2CN1C(C)=O
19 | 25 to 30 | CCOC(=O)C(=CNc1cccc2c1CCC2)C(=O)OCC
20 | 141 to 142 | CCOC(=O)c1c(CN(CC)CC)nc2sc3ccncc3c2c1-c1ccc(OC)c(OC)c1
21 | 345 | NS(=O)(=O)c1cccc(NC(=O)c2cnn3ccc(-c4ccc(Cl)cc4)nc23)c1
22 | 276 to 278 | COc1cc2c(Nc3cc(O)c(C)cc3F)ncnc2cc1O
23 | 200 to 201 | COc1cc(NC(C)=O)c(Cl)cc1C(=O)NN1CCN2CCCCC2C1 (configuration not stated)

Row | melting point [°C] | SMILES
24 | 175 to 179 | Cc1ccc2c(c1)NC(=O)c1cc(C)sc1O2
25 | 127 to 128 | COc1cnc(CSc2nc3cc(OC(F)(F)C(F)F)ccc3[nH]2)c(C)c1OC
26 | 187 to 188 | COc1ccc(C(=O)Nc2ccccc2)cc1NS(=O)(=O)c1cccc2cccnc12
27 | 99 | COc1ccc(C(Nc2ccccc2)C(=O)OC(C)(C)C)cc1 (racemic)
28 | 143 to 144 | COc1cc(OC)c2c(=O)c(OCCOc3ccc(C(C)=O)cc3)c(-c3ccc(OC)c(OC)c3)oc2c1
29 | 79 to 82 | Cc1nc2ccc3c(c2o1)OC(CNC1CCC(c2c[nH]c4ccc(F)cc24)C1)CO3 (configuration not stated)
30 | 228 to 229 | O=C1NCc2c(-c3ccccc3)cccc2N1CCN1CCOCC1
31 | 109 to 115 | O=C(O)[C@@H]1CSC(c2ccccc2O)N1C(=O)CCBr (some centres not stated)
32 | 131 | O=S(=O)(Nc1ccc(C(F)(F)F)nc1I)c1ccccc1
33 | 168 to 169 | Cc1ccc(C)c(-c2cc(C#N)c(NC(=O)[C@@H]3C[C@@H]4CC[C@H]3C4)s2)c1
34 | 117 to 118 | COc1ccc(CC(=O)O)cc1OCCCc1cn(-c2ccc(C(F)(F)F)cn2)nc1C1CCCCC1
35 | 239 to 242 | COc1ccc(-c2cc3cc(F)c(F)cc3[nH]2)cc1NS(=O)(=O)c1cccc(C#N)c1
36 | 290 | COc1c(C)c(C(=O)c2ccc3nc(C)[nH]c(=O)c3c2)n2ccccc12
37 | 52 to 53 | CC(C)C(O)(Cc1ccccc1)Cc1ccccc1
38 | 116 to 118 | CC(=O)OCC(C)C1=CCC2C3CC=C4CC(OC(C)=O)CC(OC(C)=O)C4(C)C3CCC12C (configuration not stated)
39 | 216 to 219 | COc1cc(Cc2cnc(N)nc2N)c2c(c1OC)OC(C)C2 (configuration not stated)
40 | 195 to 197 | CSc1cc2c(cc1C(F)(F)F)N(C(=O)Nc1cccc(C(=O)Nc3cccnc3)c1)CC2
41 | 128 to 138 | CCCCCCCCCCCCNC(=O)c1cc(Br)c(OCC(=O)O)c(-c2ccccc2F)c1
42 | 162 to 163 | N=C(Nc1ccc(Cl)cc1)Nc1ncccc1OCc1ccccc1Cl
43 | 93 to 94 | CC(=O)OCc1nnc(-c2ccc3occ(-c4cccc(OC(F)(F)F)c4)c3c2)o1
44 | 81 to 83 | OCC#CCCCCCCC#Cc1ccc(O)c(O)c1
45 | 222 to 224 | COc1ccccc1N1CCN([C@@H]2Cc3c(O)ccc(O)c3C[C@H]2O)CC1 (relative stereo)
46 | 70 to 71 | COc1ccc(S(=O)(=O)C[N+](=O)[O-])s1

Row | melting point [°C] | SMILES
47 | 103 | Cc1cc(C)cc(Oc2ccc(Oc3cc(C)cc(C)c3)cc2)c1
48 | 74.5 to 76 | CC(C)(CCCCCC(=O)CCCCCC(C)(C)C(=O)O)C(=O)O
49 | 200 to 202 | COc1ccccc1Nc1c(C(=O)c2ccccc2)cnc2c(OC)cccc12
50 | 127 to 128 | COC(=O)C1=C(C)NC(C)=C(c2nc(CN(C)Cc3ccccc3)no2)C1c1cccc([N+](=O)[O-])c1 (configuration not stated)
51 | 94 to 95 | CCCCCc1c(C(C)C)nc(C(C)C)c(CO)c1-c1cccc(Cl)c1
52 | 127 to 128 | O=[N+]([O-])c1ccc(S(=O)(=O)Nc2ccc(F)cc2)c([N+](=O)[O-])c1
53 | 153 to 162 | O=C(O)CCCc1cc2nc(Cl)ccc2n1S(=O)(=O)c1ccc2ncccc2c1
54 | 142 to 143 | CC(C)CC(N)C(=O)NC(CCCCNC(=O)OC(C)(C)C)C(=O)O (configuration not stated) (H-Leu-Lys(Boc)-OH; configuration not given here)
55 | 180 to 183 | Cc1ccn2c(C(=O)O)c(C)nc2c1
56 | 231 to 233 | O=C1COc2ccc(C3=CN=C(c4ccccc4)SC3c3ccccc3)cc2N1 (configuration not stated)
57 | 228 | CCOC(=O)C1=CC(C(=O)c2cc(C)ccc2O)=CN2CCc3c([nH]c4ccc(OC)cc34)C12C(=O)OCC (configuration not stated)
58 | 209 to 213 | COc1ccc2c(c1)C(=O)N(c1ccc3c(c1)cc(C)n3C)C2
59 | 160 to 162 | C=C1C(NC(=O)C(F)(F)F)CC(OC)OC1C (configuration not stated)
60 | 186 | COc1ccc2c(c1)c(CC(=O)OCC(=O)O)c(C)n2C(=O)c1c(F)cccc1F
61 | 136 to 138 | Cc1ccc(-n2nc(C(F)(F)F)cc2-c2ccc(S(C)(=O)=O)cc2)cc1Cl
62 | 124 to 126 | FC(F)(F)c1cccc(Nc2nc(NCc3ccco3)nc(OCc3ccncc3)n2)c1
63 | 200 to 210 | Cc1nn(-c2cccnc2)cc1C(=O)O
64 | 40 to 42 | CCCCCCCCCCCC1=NCCN1CCO
65 | 253 to 254 | CC(=O)N(C(C)=O)c1ncc(C#Cc2cnn3c(C(F)(F)F)cc(-c4ccc(C(F)(F)F)cc4)nc23)cn1
66 | 260 to 262 | CCn1c(=O)c2c(nc(C=Cc3cccc(C(=O)O)c3)n2C)n(CC)c1=O
67 | 108 to 109 | N#Cc1cc2c(cc1F)OCC21C(=O)N(Cc2ccccn2)c2ccccc21 (configuration not stated)
68 | 103 to 104 | Cc1oc(-c2ccccc2)nc1COc1nn(Cc2ccc(Oc3ccccc3)cc2)cc1CO
69 | 64 to 66 | COc1ccccc1C(C)(O)c1ccco1 (configuration not stated)

Row | melting point [°C] | SMILES
70 | 191 to 192 | CC(C)(O)c1c(F)ccc(-c2ccc3nc(-c4ccc(Cl)cc4)cn3c2)c1F
71 | 158 to 161 | O=C(O)C(O)c1ccc2oc([N+](=O)[O-])c(-c3ccccc3)c2c1 (configuration not stated)
72 | 64 to 67 | COC(=O)C1CSc2ccc(Cl)cc2C1=O (configuration not stated)
73 | 160 | Clc1cccc(C2=Nc3cccnc3Nc3ccccc32)c1
74 | > 300 | N#Cc1cc(F)c2ncc(C(=O)NCc3ccc(Cl)cc3)c(O)c2c1
75 | 166 to 168 | Cc1nc(-c2ccccc2)cc(-c2cccc(C#N)c2)c1C(=O)NCCN1CCOCC1
76 | 120 to 121 | CN(C(=O)NCCCl)c1ccc(C(O)(C(F)(F)F)C(F)(F)F)cc1
77 | 167 | O=c1c2cccnc2c(-c2cccc([N+](=O)[O-])c2)nn1-c1ccccc1
78 | 175 | COc1ccc2c(c1)c1c(n2-c2ccccc2)C(=O)CO1
79 | 99 to 102 | CCCCCCCCCCC(C)(C)NC(=O)Nc1cc(OC)cc(C(C)(C)C)c1O
80 | 111 to 112 | CCCN(CCC)c1c([N+](=O)[O-])cc(C2OCCS2)cc1[N+](=O)[O-] (configuration not stated)
81 | 217 | Cc1cc(C)c(-c2ccc3c(=O)c(C(=O)O)cn(C4CC4)c3c2C)cn1
82 | 164 to 165 | FC(F)(F)c1cccc(CSc2nnc(-c3ccnc4[nH]ccc34)o2)c1
83 | 158 to 159 | Cc1cnc2c(S(=O)(=O)Cl)cccc2c1
84 | 145 to 146 | FC(F)(F)c1nc(Cl)c2cc(I)ccc2n1
85 | 95 to 97 | CC(C)c1nsc(N=CN(C)C)c1C#N
86 | 113 to 120 | CNC(=O)c1ccc(N2CCN(Cc3cc(C)c4c(c3)NC(=O)C(C)O4)CC2)c(C)c1 (configuration not stated)
87 | 99 to 101 | Cc1ccc(C(O)Cc2nc(C)c(C)nc2C)cc1 (configuration not stated)
88 | 187 to 188 | CCCn1nc2c(N)nc3ccccc3c2c1CCNS(C)(=O)=O
89 | 236 to 239 | CCN1CCN(c2c(F)cc3c(=O)c(C(=O)O)cn(CC)c3c2F)CC1
90 | 85 | O=C1c2ccccc2C(=O)N1CCCC(O)CF (configuration not stated)
91 | 101 to 102 | Cc1cc(Oc2cccc(C(F)(F)F)c2)nn1C(=O)NCC1CCCO1 (configuration not stated)

Row | SMILES | melting point [°C]
92 | CCCn1c(CC)c2c3c(cccc31)C1CC(NC(=S)N(CC)CC)CN(C)C1C2 (configuration not stated) | 173 to 175
93 | COC(=O)[C@@H]1C[C@H](OC(=O)C(C)C)C(=O)[C@H]2[C@@]1(C)CC[C@H]1C(=O)O[C@H](c3ccoc3)C[C@]21C | 155 to 157
94 | CN1Cc2c(C(=O)O)ncn2-c2ccccc2C1=O | 287
95 | CCN1C(=O)N(c2ccc(C#N)c(C(F)(F)F)c2)C(=O)C1(CO)CO | 155 to 156
96 | CCOc1ccc(-c2ccc(C3(O)CN4CCC3CC4)cc2)cc1 (configuration not stated) | 199 to 200
97 | Cc1cc(NNC(=O)Nc2ccc(N(CCCl)CCCl)cc2)c2ccccc2n1 | 235 to 236
